According to patent publication US6346544B2, “Desmethyl tocopherols for protecting cardiovascular tissue” (Oklahoma Medical Research Foundation, priority 2000, dated 2002):

Tests used:
[1] = plasma concentrations of tocopherols and 5-NO2-γ-tocopherol in volunteers; assay type: in vivo, human; conditions: mean ± SEM
Excerpt: Smoking is recognized as a major contributing factor to heart disease and γ-T reportedly decreases more than α-T in smokers. Hypertension is also a strong risk factor for heart disease. […] Seven subjects indicated a chronic hypertensive condition. As outlined in Table I, γ-tocopherol tended to decrease in hypertensive subjects while nitration products tended to increase in both smokers and hypertensive subjects. This was the trend regardless of whether the tocopherol concentrations were normalized to plasma triglycerides (Table I).

αKGDH [2] = test: αKGDH protection against SIN-1 nitrative stress in isolated mitochondria in vitro; assay type: biochemical, rat
Procedure: FIG. 3 is a graph showing rat brain mitochondria exposed to 0.4 mM SIN-1 for 1 H after addition of tocopherol. (•)α-tocopherol; (▪)γ-tocopherol. The scale bars labeled [α]norm and [Y]norm indicate the normal endogenous quantities of α-tocopherol and γ-tocopherol, respectively, in human brain.
αKGDH is a rate-limiting enzyme of mitochondrial energy production which is diminished in conditions of vascular ischemia (53-58); augmentation of the enzyme with α-ketoglutarate has been found beneficial and α-ketoglutarate is now included as a component in cardioplegia fluid to improve recovery after heart surgery (59). We undertook to determine whether γT protects αKGDH against nitrative stress in vitro. Mitochondria were isolated from adult rat brain then sonicated briefly in the presence of either αT or γT, or an ethanol vehicle. Mitochondria were then exposed to SIN-1, which generates NO and superoxide simultaneously at a known rate (7). Combination of NO and superoxide yields ONOO^−. in situ (discussed above).

αKGDH [3] = test: heart αKGDH activity after tocopherol supplementation, with or without LPS challenge; assay type: in vivo, rat
Procedure: Rats were injected with 15 mg of tocopherol over the first 1 month of life; specific groups were then challenged with a septic dose of LPS and heart αKGDH activity was assayed 24 H later. *p<0.1 relative to vehicle; †p<0.05 relative to vehicle. N=5/group.
Rat pups were injected intraperitoneally (I.P.) with αT or γT in an olive oil vehicle every other day for 30 days beginning 2 days after birth; control animals received vehicle only. […] A total of 15 mg tocopherol was delivered to each animal over the 30 day period; animal weight at the end of the period was approximately 90 g for all three groups. One half of each animal group was injected with a septic dose of LPS (2.5 mg/kg, I.P). After 24 H, animals were killed and organs collected. αKGDH was assayed in heart tissue and tocopherols were measured by HPLC-ECD/PDA.

[4] = rat, in vivo, 30 days
Procedure: Rat pups were injected intraperitoneally (I.P.) with αT or γT in an olive oil vehicle every other day for 30 days beginning 2 days after birth; control animals received vehicle only. Olive oil was chosen as a vehicle because of the low tocopherol content in this particular vegetable oil. […] One half of each animal group was injected with a septic dose of LPS (2.5 mg/kg, I.P). After 24 H, animals were killed and organs collected. αKGDH was assayed in heart tissue and tocopherols were measured by HPLC-ECD/PDA.

platelets = test: platelet aggregation in vitro (PRP, aggregometer); assay type: cell-based, human; conditions: for Platelet Aggregation (% maximum): 500 μM α-tocopherol or 50 μM γ-tocopherol, 1 H preincubation
Procedure: […] inhibits platelet aggregation in vitro and in vivo, apparently through antagonism of protein kinase C (PKC) (60-63). Concentrations of αT necessary to inhibit aggregation in vitro are on the order of 500 μM (60-63), or approximately 10-fold higher than achieved in vivo. The concentration difference between in vitro and in vivo efficacy has been rationalized on the basis of incomplete tocopherol incorporation into membranes during in vitro incubation (63). Nonetheless, subjects supplemented with oral αT have diminished platelet aggregation (63). We therefore sought to investigate the ability of γ-tocopherol to inhibit platelet aggregation. PRP was obtained from two volunteers. Platelets were stimulated to aggregate with ADP, thrombin receptor activating peptide (TRAP) or the PKC agonist phorbol myristyl acetate (PMA) and aggregation was measured using a 4-channel clinical aggregometer. Specific platelet samples were preincubated with vehicle, αT, γT or 5-NO2-γ-tocopherol for 1 H prior to stimulation. Tocopherol concentrations were set at 10-fold excess to average PRP levels based on the precedent of previous in vitro aggregation experiments that used αT as an inhibitor (60-63).

[5] = human plasma γT relative to αT; assay type: in vivo
Excerpt: Chemistry of tocopherol reaction with oxidizing agents. γ-Tocopherol is a natural product (a desmethyl tocopherol) of plant origin, present in many vegetable oils, especially soybean oil (1-2). γ-Tocopherol is normally taken into the body through consumption of foodstuffs. Human plasma γT concentration is variously reported as 5-30% of αT (3). The γTαT ratio varies markedly among individuals; plasma γT/αT proportionalities may be as low as 0.2% and as high as 30% (inventors' observations). Both αT and γT are absorbed equally well by the gut, but γT is packaged into lipoproteins less effectively than αT (4). For this reason, αT supplementation decreases systemic γT concentration (3-4).
γ-Tocopherol in human biology and cardiovascular disease. Relative to αT, a dearth of epidemiological data exists for γT. Human plasma γT concentration is variously reported as between 5-30% that of αT (41). In platelet-poor plasma, we find that 7% is very close to the correct value in young healthy subjects. The γT/αT ratio varies markedly among individuals; we have observed plasma γT/αT proportionalities as low as 0.2% and as high as 30%. γT is now a major tocopherol in the US diet, due to the high intake of soybean and vegetable oils that are abundant sources of γT (40). Both αT and γT are absorbed equally well by the gut, but γT is packaged into lipoproteins less effectively than αT (39). For this reason, αT supplementation decreases systemic γT concentration (41-42). δ-Tocopherol, β-tocopherol and tocol (other demethylated tocopherol homologs) exist in human plasma at approximately 1:10 ratios relative to γT (41). Detailed demographic data regarding plasma and tissue levels of desmethylated tocopherols and their oxidation products have never been published. While extensive data has been collected on α-tocopherol as a possibly beneficial molecule in cardiovascular disease, very little data has been collected on γT.

[6] = tested on: ECV304 human endothelial cells; conditions: 10 μM α-T, 10 μM γ-T or 5 μM of each; 19 hours preincubation; 5 mM SIN-1; 24 hours
Procedure: Cultured ECV304 human endothelial cells were exposed to SIN-1 in the presence of 10 μM α-T, 10 μM γ-T or 5 μM of each (FIG. 5). Tocopherols were incubated with the cells for 19 hours prior to addition of SIN-1. Viability was assayed 24 hours later using a standard tetrazolium (MTT) reduction assay.

C3H/10T1/2 fibroblasts = conditions: methylcholanthrene-treated C3H/10T1/2 fibroblasts; cited from earlier work
[7] = liposomes exposed to ONOO−; cited from earlier work
[8] = tocopherol-depleted rats fed two weeks after iron-dextran; cited from earlier work
[9] = cited from earlier work
[10] = 100 mg/kg/day, 10 days, cited from earlier work
[11] = variously reported; cited from earlier work
[12] = rat brain mitochondria, 400 μM SIN-1, one hour

Cc1c(C)c2c(c([N+](=O)[O-])c1O)CCC(C)(CCCC(C)CCCC(C)CCCC(C)C)O2 (stereo not drawn) [5-NO2-γ-tocopherol, 5-nitro-γ-tocopherol]
plasma concentration ([1]; hypertensives, N = 7): 20.0 ± 3.7 ng/mL plasma
plasma concentration normalized to triglyceride ([1]; hypertensives, N = 7): 34.9 ± 10.9 ng/mg triglyceride
plasma concentration ([1]; population, N = 54): 11.3 ± 1.6 ng/mL plasma
plasma concentration normalized to triglyceride ([1]; population, N = 54): 14.0 ± 2.5 ng/mg triglyceride
plasma concentration ([1]; smokers, N = 7): 20.0 ± 3.3 ng/mL plasma
plasma concentration normalized to triglyceride ([1]; smokers, N = 7): 23.5 ± 7.2 ng/mg triglyceride

Nc1c[n+](N2CCOCC2)no1 [SIN-1, reference compound]
diminution of αKGDH activity (αKGDH [2]; 400 μM SIN-1, one hour, rat brain mitochondria): approximately 50%

Cc1c(O)cc2c(c1C)O[C@](C)(CCC[C@H](C)CCC[C@H](C)CCCC(C)C)CC2 [γ-tocopherol]
concentration offering as much αKGDH protection as 1-10 μM αT (αKGDH [2]; 400 μM SIN-1, one hour): 50 to 100 nM
αKGDH protection in side-by-side comparison (αKGDH [2]; all concentrations tested): more protective than αT
αKGDH protection relative to corresponding concentration of αT (αKGDH [2]; concentrations near 100 nM, 400 μM SIN-1): approximately 5 times
maximal αKGDH protection relative to αT (αKGDH [2]; [12]): approximately 2.5 times
tocopherol concentration of maximal αKGDH protection (αKGDH [2]; [12]): 1 µM
heart αKGDH activity after LPS challenge, ranking among groups (αKGDH [3]; LPS 2.5 mg/kg I.P., 24 H): highest heart αKGDH activity
increase of mean heart αKGDH activity (αKGDH [3]; animals not subjected to LPS stress, 15 mg tocopherol I.P. over 30 days): 40%
heart tissue tocopherol concentration, controls [4]: 1.8±0.4 ng/mg protein
plasma concentration ([1]; hypertensives, N = 7): 0.463 ± 0.165 μg/mL plasma
plasma concentration normalized to triglyceride ([1]; hypertensives, N = 7): 0.606 ± 0.153 μg/mg triglyceride
plasma concentration ([1]; population, N = 54): 0.713 ± 0.067 μg/mL plasma
plasma concentration normalized to triglyceride ([1]; population, N = 54): 0.813 ± 0.088 μg/mg triglyceride
plasma concentration ([1]; smokers, N = 7): 0.680 ± 0.153 μg/mL plasma
plasma concentration normalized to triglyceride ([1]; smokers, N = 7): 0.810 ± 0.213 μg/mg triglyceride
Platelet Aggregation (% maximum) (platelets; ADP 20 μM, Subject 1): 117 % maximum
Platelet Aggregation (% maximum) (platelets; ADP 20 μM, Subject 2): 90 % maximum
Platelet Aggregation (% maximum) (platelets; PMA 200 nM, Subject 1): 57 % maximum
Platelet Aggregation (% maximum) (platelets; PMA 200 nM, Subject 2): 29 % maximum
Platelet Aggregation (% maximum) (platelets; TRAP 20 μM, Subject 1): 73 % maximum
Platelet Aggregation (% maximum) (platelets; TRAP 20 μM, Subject 2): 88 % maximum
ability to inhibit PKC-linked platelet aggregation (platelets; TRAP or PMA as agonist): similarly efficacious to αT
highest observed plasma γT/αT proportionality ([5]; inventors' observations): 30%
lowest observed plasma γT/αT proportionality ([5]; inventors' observations): 0.2%
plasma γT concentration as % of αT ([5]; platelet-poor plasma, young healthy subjects): ~7%
effect on SIN-1 toxicity (MTT viability) [6]: promoted viability somewhat
effectiveness at inhibiting neoplastic transformation relative to αT (C3H/10T1/2 fibroblasts): 4 fold
effectiveness at inhibiting lipid hydroperoxide formation relative to αT [7]: twice as effective
effectiveness at inhibiting systemic lipid oxidation relative to αT [8]: approximately 35%
delay/increase of time to occlusive thrombus ([9]; 100 mg/kg/day for 10 days, 29% FeCl3 patch): 65%
inhibition of platelet aggregation kinetics, efficacy relative to αT supplementation ([9]; 100 mg/kg/day for 10 days): 2 fold
potency relative to αT at inhibition of thrombogenic correlates, in reference to plasma tocopherol concentrations ([9]; rat, in vivo): 20-30 times
superoxide dismutase activity in the aortas compared to αT treated group ([9]; rat, in vivo): increased significantly
increase of plasma level above baseline ([10]; own supplementation): 6 fold
plasma γT concentration as % of the αT concentration ([10]; γT supplemented rats): ≤ 10%
human plasma γT concentration as % of αT [11]: 5-30%
